In brackets after ≈: the same amount, converted by molar mass.
Experiments:
COX-2 = target: T1, COX-2 (Mus musculus, UniProt Q05769); assay: Evaluation of COX-2 activity: PGE2 formation in aspirin-treated, LPS-stimulated mouse peritoneal macrophages; assay type: cell-based
T1 sequence (Q05769 18-604): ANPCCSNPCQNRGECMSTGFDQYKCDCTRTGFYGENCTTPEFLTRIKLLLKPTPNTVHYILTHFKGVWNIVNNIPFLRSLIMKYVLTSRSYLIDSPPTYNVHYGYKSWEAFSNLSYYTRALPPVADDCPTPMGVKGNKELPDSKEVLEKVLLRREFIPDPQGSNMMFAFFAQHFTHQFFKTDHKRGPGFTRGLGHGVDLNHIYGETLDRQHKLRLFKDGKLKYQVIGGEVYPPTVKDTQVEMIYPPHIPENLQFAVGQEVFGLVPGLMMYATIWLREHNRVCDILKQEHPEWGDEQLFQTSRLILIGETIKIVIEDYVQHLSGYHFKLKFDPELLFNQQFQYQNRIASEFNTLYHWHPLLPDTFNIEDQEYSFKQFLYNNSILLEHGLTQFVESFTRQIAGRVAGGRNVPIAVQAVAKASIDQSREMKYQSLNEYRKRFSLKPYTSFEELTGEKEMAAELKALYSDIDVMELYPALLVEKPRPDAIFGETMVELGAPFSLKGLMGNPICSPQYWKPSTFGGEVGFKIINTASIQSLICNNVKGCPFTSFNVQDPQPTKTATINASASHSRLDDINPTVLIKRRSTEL
In short: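 C57BL/6 peritoneal macrophages treated with 500 μM aspirin to block COX-1, adhered, then stimulated with 10 μg/ml LPS for 16 h at 37 °C to induce COX-2.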

[1] = test system: male Sprague-Dawley (SD) rats; assay: Carrageenan-induced foot edema in rats (CFE); assay type: in vivo; settings: oral dose 3 mg/kg body weight, rat, paw volume 3 hours after Carrageenan
Method: An appropriate amount of a compound of this invention suspended in 1% methylcellulose (MC) solution was administered to male Sprague-Dawley (SD) rats weighing 150˜200 g by oral gavage. The volume of the administered vehicle for a compound of this invention was controlled to be smaller than 10 ml/kg body weight of the animal. One hour later, 0.1 ml of 1% Carrageenan saline solution was directly injected into the right paw of the rats to induce edema in the paw. The paw volumes at 0 hour and at 3 hours after the injection of Carrageenan were measured by using a displacement plethysmometer (Ugo Basile, Italy). The paw volumes were used to calculate % inhibition of CFE by an amount of a compound of this invention according to the following equation.
% Inhibition of CFE=(1−Δtreated/Δcontrol)×100
wherein Δtreated=[paw volume at three hours after the Carrageenan injection−paw volume right after Carrageenan injection] for a drug-administered rat, and Δcontrol=[paw volume at three hours after the Carrageenan injection−paw volume right after Carrageenan injection] for a rat without drug administration.
In order to determine the inhibitory activity of a compound of this invention at a dose, usually 5 to 8 animals were used both for drug-treated group and for control group.

male SD rats = assay: Carrageenan-induced thermal hyperalgesia assay; assay type: in vivo, rat; settings: 3 hours
Method: Male SD rats weighing 170˜220 g were fasted but with free access to water for at leat 16 hours prior to testing. The rats were administered with a compound of this invention suspended in 20 ml 0.5% methylcellulose/0.025% Tween-20, or with vehicle only. Then the rats were given […] of 1% carrageenan in saline or […] saline only into the plantar surface of the left hindpaw by injection. Three hours later, the nociceptive responses to thermal stimuli were assessed as follows: Rats, which were placed in a transparent plastic chamber with a glass floor, were allowed to acclimate to their environment for 10 minutes prior to the testing. The withdrawal latency period in seconds was determined for the control and the compound treated group, and a percent inhibition in the withdrawal latency was calculated to estimate the analgesic effect of the compound [Pain 32, 77 (1988)]. In this study 6 animals were used for each group.

| Structure (SMILES) | IC50, μg/ml COX-2 (COX-2) | melting point | % Inhibition (CFE) [1] | % Inhibition at 1.0 mg/kg body weight (rat hyperalgesia) (male SD rats) |
| --- | --- | --- | --- | --- |
| CC1(C)OC(c2ccc(S(C)(=O)=O)cc2)=C(c2cc(F)cc(F)c2)C1=O [Example 11, 4-(3,5-Difluorophenyl)-2,2-dimethyl-5-{4-(methylsulfonyl)phenyl}-3(2H)-furanone] | 0.05 µg/mL (≈ 0.132 µM) | 141 to 142 °C |  |  |
| CC1(C)OC(c2ccc(S(N)(=O)=O)cc2F)=C(c2ccc(F)cc2)C1=O [Example 334] | 0.03 µg/mL (≈ 0.0791 µM) | 95 to 97 °C | 37% |  |
| CC1(C)OC(c2ccc(S(N)(=O)=O)cc2)=C(c2cccc(F)c2)C1=O [Example 129, 5-{4-(aminosulfonyl)phenyl}-2,2-dimethyl-4-(3-fluorophenyl)-3(2H)-furanone] | 0.0067 µg/mL (≈ 0.0185 µM) |  | 47% | 92% |
| CC1(C)OC(c2ccc(S(N)(=O)=O)cc2)=C(c2cccc(Cl)c2)C1=O [Example 126] | 0.014 µg/mL (≈ 0.0371 µM) | 194 to 195 °C | 39% |  |
| CC1(C)OC(c2ccc(S(C)(=O)=O)cc2)=C(c2cccc(F)c2)C1=O [Example 4, 2,2-Dimethyl-4-(3-fluorophenyl)-5-{4-(methylsulfonyl)phenyl}-3(2H)-furanone] | 0.02 µg/mL (≈ 0.0555 µM) | 178 to 179 °C | 36% | 27% |

From US6492416B1, “4,5-diaryl-3(2H)-furanone derivatives as cyclooxygenase-2 inhibitors” (Pacific Corporation, priority 1999, dated 2002)
